Assay results: EP0195841A1, “Quinolinecarboxylic acid derivatives and process for their preparation” (KYORIN PHARMACEUTICAL CO., LTD., priority 1985, dated 1986)
Values after ≈ are worked out from the molar mass of the structure shown.

Key:
Experiment in all cases: Antibacterial spectra, MIC by standard method of Japan Society of Chemotherapy
Type in all cases: cell-based
[1] = test system: P. morganii IID 602; settings: 10^6 cells/ml; for MIC: Morganella morganii, IID602, Gram −, read-out: Minimum Inhibitory Concentration
[2] = test system: Salmonella enteritidis IID 604; settings: Gram −, 10^6 cells/ml; for MIC: Salmonella enterica, read-out: Minimum Inhibitory Concentration
[3] = test system: Staphylococcus aureus 209 P; settings: Gram +, 10^6 cells/ml; for MIC: read-out: Minimum Inhibitory Concentration
[4] = test system: Klebsiella pneumoniae KY 6445; settings: 10^6 cells/ml; for ratio of activity per that of Ciprofloxacin (bracketed number): Gram −
[5] = test system: Shigella sonnei IID 969; settings: 10^6 cells/ml; for ratio of activity per that of Ciprofloxacin (bracketed number): Gram −
Experimental: Experiment 1. Antibacterial spectra
Antibacterial activity was determined with the standard method recommended by Japan Society of Chemotherapy.

[6] = test system: Serratia marcescens IID 618; settings: 10^6 cells/ml; for ratio of activity per that of Ciprofloxacin (bracketed number): Gram −; for MIC: IID618, Gram −, read-out: Minimum Inhibitory Concentration
[7] = test system: Yersinia enterocolitica IID 981; settings: 10^6 cells/ml; for ratio of activity per that of Ciprofloxacin (bracketed number): Gram −; for MIC: IID981, Gram −, read-out: Minimum Inhibitory Concentration
[8] = test system: Citrobacter freundii IID 976; settings: 10^6 cells/ml; for ratio of activity per that of Ciprofloxacin (bracketed number): Gram −; for MIC: IID976, Gram −, read-out: Minimum Inhibitory Concentration
[9] = test system: S. aureus IID 670 (Terajima); settings: 10^6 cells/ml; for ratio of activity per that of Ciprofloxacin (bracketed number): Gram +; for MIC: Staphylococcus aureus, IID670, Gram +, read-out: Minimum Inhibitory Concentration
[10] = test system: Bacteroides fragilis 25285; settings: Gram −, 10^6 cells/ml; for MIC: read-out: Minimum Inhibitory Concentration
[11] = test system: Proteus vulgaris IFO 3167; settings: Proteus vulgaris IFO 3167, Gram −, 10^6 cells/ml; for MIC: IFO3167, read-out: Minimum Inhibitory Concentration
[12] = test system: Pseudomonas aeruginosa V-1; settings: 10^6 cells/ml; for ratio of activity per that of Ciprofloxacin (bracketed number): Gram −; for MIC: V1, Gram −, read-out: Minimum Inhibitory Concentration
[13] = test system: Bacillus subtilis PCI 219; settings: 10^6 cells/ml; for MIC: PCI219, Gram +, read-out: Minimum Inhibitory Concentration
[14] = test system: P. mirabilis IID 994; settings: 10^6 cells/ml; for ratio of activity per that of Ciprofloxacin (bracketed number): Gram −; for MIC: Proteus mirabilis, IID994, Gram −, read-out: Minimum Inhibitory Concentration
[15] = test system: E. coli NIHJ JC-2; settings: E. coli NIHJ JC-2, Gram −, 10^6 cells/ml
[16] = test system: Acinetobacter anitratus IID 876; settings: 10^6 cells/ml; for MIC: Acinetobacter calcoaceticus, IID876, Gram −, read-out: Minimum Inhibitory Concentration; for ratio of activity per that of Ciprofloxacin (bracketed number): Gram −
[17] = test system: Bacteroides fragilis 0558; settings: Gram −, 10^6 cells/ml; for MIC: read-out: Minimum Inhibitory Concentration
[18] = test system: S. epidermidis IID 866; settings: 10^6 cells/ml; for ratio of activity per that of Ciprofloxacin (bracketed number): Gram +; for MIC: Staphylococcus epidermidis, IID866, Gram +, read-out: Minimum Inhibitory Concentration
[19] = test system: Streptococcus pyogenes IID 692; settings: 10^6 cells/ml; for ratio of activity per that of Ciprofloxacin (bracketed number): Gram +; for MIC: IID692, Gram +, read-out: Minimum Inhibitory Concentration
[20] = test system: Alcaligenes faecalis 0104002; settings: Gram −, 10^6 cells/ml; for MIC: read-out: Minimum Inhibitory Concentration
[21] = test system: S. pneumoniae 2054; settings: Gram +, 10^6 cells/ml
[22] = test system: S. faecalis IID 682; settings: 10^6 cells/ml; for MIC: Enterococcus faecalis, IID682, Gram +, read-out: Minimum Inhibitory Concentration
[23] = test system: Pseudomonas aeruginosa IFO 12689; settings: 10^6 cells/ml; for ratio of activity per that of Ciprofloxacin (bracketed number): Gram −; for MIC: IFO12689, Gram −, read-out: Minimum Inhibitory Concentration
[24] = test system: Bacteroides fragilis GM 7000; settings: 10^6 cells/ml; for MIC: GM7000, Gram −, read-out: Minimum Inhibitory Concentration; for ratio of activity per that of Ciprofloxacin (bracketed number): Gram −
[25] = test system: S. pyogenes IID 689 (S-8); settings: 10^6 cells/ml; for ratio of activity per that of Ciprofloxacin (bracketed number): Gram +
[26] = test system: Enterobacter cloacae IID 977; settings: 10^6 cells/ml; for ratio of activity per that of Ciprofloxacin (bracketed number): Gram −; for MIC: IID977, Gram −, read-out: Minimum Inhibitory Concentration
[27] = test system: E. coli ATCC 10536; settings: 10^6 cells/ml; for MIC: Escherichia coli, ATCC10536, Gram −, read-out: Minimum Inhibitory Concentration; for ratio of activity per that of Ciprofloxacin (bracketed number): Gram −

## O=C(O)c1cn(C2CC2)c2c(F)c(N3CCNCC3)c(F)cc2c1=O [Reference- 1, 1-Cyclopropyl-6,8-difluoro-1,4-dihydro-4-oxo-7-(1-piperazinyl)quinoline-3-carboxylic acid, reference compound]
[1]; Gram −
  ratio of activity per that of Ciprofloxacin (bracketed number): 2
[1]
  MIC: 0.025 µg/mL (≈ 0.0716 µM)
[2]
  MIC: 0.0125 µg/mL (≈ 0.0358 µM)
[3]
  ratio of activity per that of Ciprofloxacin (bracketed number): 2
  MIC: 0.2 µg/mL (≈ 0.573 µM)
[4]
  ratio of activity per that of Ciprofloxacin (bracketed number): 1
[5]
  ratio of activity per that of Ciprofloxacin (bracketed number): 1
[6]
  ratio of activity per that of Ciprofloxacin (bracketed number): 4
  MIC: 0.1 µg/mL (≈ 0.286 µM)
[7]
  ratio of activity per that of Ciprofloxacin (bracketed number): 2
  MIC: 0.025 µg/mL (≈ 0.0716 µM)
[8]
  ratio of activity per that of Ciprofloxacin (bracketed number): 0.5
  MIC: 0.0125 µg/mL (≈ 0.0358 µM)
[9]
  ratio of activity per that of Ciprofloxacin (bracketed number): 2
  MIC: 0.2 µg/mL (≈ 0.573 µM)
[10]
  MIC: 0.78 µg/mL (≈ 2.23 µM)
[11]
  MIC: ≤ 0.006 µg/mL
  ratio of activity per that of Ciprofloxacin (bracketed number): 1
[12]
  ratio of activity per that of Ciprofloxacin (bracketed number): 1
  MIC: 0.2 µg/mL (≈ 0.573 µM)
[13]; Gram +
  ratio of activity per that of Ciprofloxacin (bracketed number): 2
[13]
  MIC: 0.025 µg/mL (≈ 0.0716 µM)
[14]
  ratio of activity per that of Ciprofloxacin (bracketed number): 2
  MIC: ≤ 0.006 µg/mL
[15]
  ratio of activity per that of Ciprofloxacin (bracketed number): 1
[16]
  MIC: 0.0125 µg/mL (≈ 0.0358 µM)
  ratio of activity per that of Ciprofloxacin (bracketed number): 2
[17]
  ratio of activity per that of Ciprofloxacin (bracketed number): 4
  MIC: 0.78 µg/mL (≈ 2.23 µM)
[18]
  ratio of activity per that of Ciprofloxacin (bracketed number): 2
  MIC: 0.2 µg/mL (≈ 0.573 µM)
[19]
  ratio of activity per that of Ciprofloxacin (bracketed number): 1
  MIC: 0.78 µg/mL (≈ 2.23 µM)
[20]
  ratio of activity per that of Ciprofloxacin (bracketed number): 2
  MIC: 0.02 µg/mL (≈ 0.0573 µM)
[21]
  ratio of activity per that of Ciprofloxacin (bracketed number): 2
[22]
  MIC: 0.78 µg/mL (≈ 2.23 µM)
[22]; Gram +
  ratio of activity per that of Ciprofloxacin (bracketed number): 1
[23]
  ratio of activity per that of Ciprofloxacin (bracketed number): 1
  MIC: 0.39 µg/mL (≈ 1.12 µM)
[24]
  MIC: 1.56 µg/mL (≈ 4.47 µM)
  ratio of activity per that of Ciprofloxacin (bracketed number): 2
[25]
  ratio of activity per that of Ciprofloxacin (bracketed number): 1
[26]
  ratio of activity per that of Ciprofloxacin (bracketed number): 2
  MIC: 0.025 µg/mL (≈ 0.0716 µM)
[27]
  MIC: 0.0125 µg/mL (≈ 0.0358 µM)
  ratio of activity per that of Ciprofloxacin (bracketed number): 1

## O=C(O)c1cn(C2CC2)c2c(Cl)c(N3CCNCC3)c(F)cc2c1=O [Example 25, 8-Chloro-l-cyclopropyl-6-fluoro-l,4-dihydro-4-oxo-7-(1-piperazinyl)quinoline-3-carboxylic acid]
[1]
  MIC: 0.0125 µg/mL (≈ 0.0342 µM)
[2]
  ratio of activity per that of Ciprofloxacin (bracketed number): 2
  MIC: 0.0125 µg/mL (≈ 0.0342 µM)
[3]
  ratio of activity per that of Ciprofloxacin (bracketed number): 8
  MIC: 0.05 µg/mL (≈ 0.137 µM)
[4]
  ratio of activity per that of Ciprofloxacin (bracketed number): 1
[4]; KY6445, Gram −, read-out: Minimum Inhibitory Concentration
  MIC: 0.0125 µg/mL (≈ 0.0342 µM)
[5]
  ratio of activity per that of Ciprofloxacin (bracketed number): 1
[5]; IID969, Gram −, read-out: Minimum Inhibitory Concentration
  MIC: ≤ 0.006 µg/mL
[6]
  ratio of activity per that of Ciprofloxacin (bracketed number): 16
  MIC: 0.025 µg/mL (≈ 0.0683 µM)
[7]
  ratio of activity per that of Ciprofloxacin (bracketed number): 2
  MIC: 0.025 µg/mL (≈ 0.0683 µM)
[8]
  ratio of activity per that of Ciprofloxacin (bracketed number): 0.5
  MIC: 0.0125 µg/mL (≈ 0.0342 µM)
[9]
  ratio of activity per that of Ciprofloxacin (bracketed number): 4
  MIC: 0.1 µg/mL (≈ 0.273 µM)
[10]
  ratio of activity per that of Ciprofloxacin (bracketed number): 16
  MIC: 0.2 µg/mL (≈ 0.547 µM)
[11]
  MIC: ≤ 0.006 µg/mL
  ratio of activity per that of Ciprofloxacin (bracketed number): 1
[12]
  ratio of activity per that of Ciprofloxacin (bracketed number): 4
  MIC: 0.05 µg/mL (≈ 0.137 µM)
[13]
  MIC: 0.0125 µg/mL (≈ 0.0342 µM)
[14]
  ratio of activity per that of Ciprofloxacin (bracketed number): 1
  MIC: 0.0125 µg/mL (≈ 0.0342 µM)
[15]
  ratio of activity per that of Ciprofloxacin (bracketed number): 1
[15]; Escherichia coli, NIHJJC2, read-out: Minimum Inhibitory Concentration
  MIC: ≤ 0.006 µg/mL
[16]
  MIC: 0.05 µg/mL (≈ 0.137 µM)
  ratio of activity per that of Ciprofloxacin (bracketed number): 0.5
[17]
  ratio of activity per that of Ciprofloxacin (bracketed number): 16
  MIC: 0.2 µg/mL (≈ 0.547 µM)
[18]
  ratio of activity per that of Ciprofloxacin (bracketed number): 8
  MIC: 0.05 µg/mL (≈ 0.137 µM)
[19]
  ratio of activity per that of Ciprofloxacin (bracketed number): 2
  MIC: 0.39 µg/mL (≈ 1.07 µM)
[20]
  ratio of activity per that of Ciprofloxacin (bracketed number): 2
  MIC: 0.02 µg/mL (≈ 0.0547 µM)
[21]
  ratio of activity per that of Ciprofloxacin (bracketed number): 4
[21]; Streptococcus pneumoniae, read-out: Minimum Inhibitory Concentration
  MIC: 0.39 µg/mL (≈ 1.07 µM)
[22]
  MIC: 0.2 µg/mL (≈ 0.547 µM)
[23]
  ratio of activity per that of Ciprofloxacin (bracketed number): 1
  MIC: 0.39 µg/mL (≈ 1.07 µM)
[24]
  MIC: 0.39 µg/mL (≈ 1.07 µM)
  ratio of activity per that of Ciprofloxacin (bracketed number): 8
[25]
  ratio of activity per that of Ciprofloxacin (bracketed number): 2
[25]; Streptococcus pyogenes, IID689, Gram +, read-out: Minimum Inhibitory Concentration
  MIC: 0.2 µg/mL (≈ 0.547 µM)
[26]
  ratio of activity per that of Ciprofloxacin (bracketed number): 2
  MIC: 0.025 µg/mL (≈ 0.0683 µM)
[27]
  MIC: ≤ 0.006 µg/mL
  ratio of activity per that of Ciprofloxacin (bracketed number): 2
